These are literature values, as cited in patent US20210002295A1, “SMALL MOLECULE DEGRADERS THAT RECRUIT DCAF15” (Dana-Farber Cancer Institute, Inc., priority 2017, published 2021).

What is called Kd is a measure of binding affinity in units of concentration.

This data set has as its target bromodomains of BET proteins. The following applies: stated for small molecule BET inhibitors.

Take `Cc1sc2c(c1C)C(c1ccc(Cl)cc1)=N[C@@H](CC(=O)OC(C)(C)C)c1nnc(C)n1-2` [JQ1]: the Kd was approximately 10 nM.
